Measurements as given in patent publication US20260207623A1, “USE OF ESTETROL IN HEPATICALLY IMPAIRED PATIENTS” (ESTETRA SRL, priority 2022, published 2026).
Where “and” joins values, the source holds several entries; their conditions need not be identical. Equal entries are not always repeated. Where two headings read alike, the source gives them in different places.

Experiment: Phase 1 pharmacokinetic study of a single oral dose of 20 mg E4 monohydrate in female subjects with normal hepatic function and mild, moderate or severe hepatic impairment (plasma, LC-MS/MS, non-compartmental analysis)
Format: in vivo, human
Settings: for AUC(0-t) / Cmax / half-life / Tmax / Vd/F / AUC(0-inf): female, human, plasma, po, 20 mg; for Tmax: read-out: Tmax, Median
Protocol: This was a Phase 1, multi-centre, open-label, PK, and safety study of a single oral dose of 20 mg E4 monohydrate in female subjects with normal hepatic function (Group 1), mild hepatic impairment (Group 2), moderate hepatic impairment (Group 3), and severe hepatic impairment (Group 4), as defined using the Child-Pugh classification at Screening.
The study consisted of an eligibility Screening period (within 28 days prior to study drug administration), an Assessment Period with in-house period and outpatient visits (including a single oral dose of 20 mg E4 on Day 1), and a follow up visit. All subjects were confined to the study site from Day-1 (the day before dosing) until Day 4 and returned to the site every day from Day 5 to Day 9. Alternatively, the subjects could stay for a prolonged in-house period in agreement with the Investigator. The follow-up visit occurred on Day 14 (+2 days).
All subjects arrived at the study site in the morning of Day-1 in a fasted state (no food for at least 8 h, water was allowed) to have the scheduled assessments performed in order to confirm eligibility as outlined in the inclusion and exclusion criteria (Section 2.3.1 and Section 2.3.2, respectively). In the morning of Day 1 following an overnight fast, the subjects received oral dosing of 20 mg E4 monohydrate and remained at the site. Study-related assessments were performed at time points indicated in the Schedule of Assessments in Table 2.
Serial blood sampling for PK assessments started on Day 1 and proceeded until Day 9 according to the Pharmacokinetic Sampling Schedule presented in Table 3.
Each enrolled subject was to receive a single oral dose of 20 mg of E4 (estetrol) as monohydrate as a film-coated tablet.
Study drug was administered to subjects in the morning after an overnight fast of at least 8 h.
Calculation of non-compartmental PK parameters were done using WinNonlin™ Professional, Version 6.3 or higher.
The primary PK parameters to be analyzed for E4 in plasma: • Cmax=maximum observed plasma concentration • AUCinf=area under the concentration-time curve (AUC) from time zero extrapolated to infinity
The analysis of E4 and the metabolites E4-3-glucuronide and E4-16-glucuronide in plasma samples were performed at the Bioanalytical Laboratory of the CRO using a validated liquid chromatography-mass spectrometry/mass spectrometry method.
Individual and mean plasma concentrations at each sampling time point for E4 are presented by listings and descriptive summary statistics including means, geometric means (GMs), medians, ranges, standard deviations (SD) and coefficients of variation (CV). Individual, mean and/or median concentrations per hepatic function group were plotted versus time on semilogarithmic scales.
PK parameters were calculated by non-compartmental analysis. PK parameters were analysed using descriptive statistics and are presented by hepatic function group.
Analysis of variance (ANOVA) were used to compare primary PK parameters of E4 (Cmax and AUCinf) between subjects with hepatic impairment and subjects with normal hepatic function in an exploratory approach, using the log-transformed value of each PK parameter as dependent variable, and the hepatic impairment group (normal, mild, moderate, and severe) as a fixed classification factor. Geometric least squares means were used to calculate the ratios of primary PK parameters for each hepatic impairment group to those in the control group, along with 90% confidence intervals (CIs).
Additionally, the impact of age and BMI on the effect of hepatic impairment were evaluated using an ANOVA model similar as the ANOVA model described above, but with the interaction between each factor and the hepatic impairment group included as an additional factor.
The relationship between log-transformed PK parameters (Cmax and AUCinf) and continuous parameters (albumin, total bilirubin, and prothrombin time) used for the Child-Pugh score was explored by a linear regression approach. […]

[1] = mild hepatic impairment, single oral dose 20 mg
[2] = moderate hepatic impairment, single oral dose 20 mg
[3] = severe hepatic impairment, single oral dose 20 mg

SMILES: C[C@]12CC[C@@H]3c4ccc(O)cc4CC[C@H]3[C@@H]1[C@@H](O)[C@@H](O)[C@@H]2O [E4, 1,3,5 (10)-estratrien-3,15alpha, 16alpha, 17beta-tetrol]
- AUC(0-t) (Moderate hepatic impairment, single oral dose 20 mg E4 monohydrate, read-out: AUClast, Mean): 122 ng·h/mL
- AUC(0-t) (Moderate hepatic impairment, single oral dose 20 mg E4 monohydrate, read-out: AUClast, Median): 114 ng·h/mL
- Cmax (Moderate hepatic impairment, single oral dose 20 mg E4 monohydrate, read-out: Cmax, GM): 39.4 ng/mL
- Cmax (Moderate hepatic impairment, single oral dose 20 mg E4 monohydrate, read-out: Cmax, Mean): ~52 ng/mL
- Cmax (Moderate hepatic impairment, single oral dose 20 mg E4 monohydrate, read-out: Cmax, Median): 41.1 ng/mL
- half-life (Moderate hepatic impairment, single oral dose 20 mg E4 monohydrate, read-out: T1/2, GM (converted)): 14.8 h
- half-life (Moderate hepatic impairment, single oral dose 20 mg E4 monohydrate, read-out: T1/2, Mean (converted)): 16.6 h
- half-life (Moderate hepatic impairment, single oral dose 20 mg E4 monohydrate, read-out: T1/2, Median (converted)): 14.3 h
- Tmax (Moderate hepatic impairment, single oral dose 20 mg E4 monohydrate): 0.5 h
- Vd/F (Moderate hepatic impairment, single oral dose 20 mg E4 monohydrate, read-out: Vz/F, GM): 3960 L
- Vd/F (Moderate hepatic impairment, single oral dose 20 mg E4 monohydrate, read-out: Vz/F, Mean): 4760 L
- Vd/F (Moderate hepatic impairment, single oral dose 20 mg E4 monohydrate, read-out: Vz/F, Median): 4150 L
- AUC(0-inf) (Normal (Reference), one-way ANOVA, single oral dose 20 mg, read-out: AUCinf, Geometric LS Mean): 104 ng·h/mL
- Cmax (Normal (Reference), one-way ANOVA, single oral dose 20 mg, read-out: Cmax, Geometric LS Mean): 20.8 ng/mL
- AUC(0-t) (Normal hepatic function, single oral dose 20 mg E4 monohydrate, read-out: AUC0-24 h, GM): 60.4 ng·h/mL
- AUC(0-t) (Normal hepatic function, single oral dose 20 mg E4 monohydrate, read-out: AUC0-24 h, Mean): 63.5 ng·h/mL
- AUC(0-t) (Normal hepatic function, single oral dose 20 mg E4 monohydrate, read-out: AUC0-24 h, Median): 63.8 ng·h/mL
- AUC(0-inf) (Normal hepatic function, single oral dose 20 mg E4 monohydrate, read-out: AUCinf, GM): 104 ng·h/mL
- AUC(0-inf) (Normal hepatic function, single oral dose 20 mg E4 monohydrate, read-out: AUCinf, Mean): 108 ng·h/mL
- AUC(0-inf) (Normal hepatic function, single oral dose 20 mg E4 monohydrate, read-out: AUCinf, Median): 113 ng·h/mL
- AUC(0-t) (Normal hepatic function, single oral dose 20 mg E4 monohydrate, read-out: AUClast, GM): 103 ng·h/mL
- AUC(0-t) (Normal hepatic function, single oral dose 20 mg E4 monohydrate, read-out: AUClast, Mean): 107 ng·h/mL
- AUC(0-t) (Normal hepatic function, single oral dose 20 mg E4 monohydrate, read-out: AUClast, Median): 111 ng·h/mL
- Cmax (Normal hepatic function, single oral dose 20 mg E4 monohydrate, read-out: Cmax, GM): 20.8 ng/mL
- Cmax (Normal hepatic function, single oral dose 20 mg E4 monohydrate, read-out: Cmax, Mean): ~24 ng/mL
- Cmax (Normal hepatic function, single oral dose 20 mg E4 monohydrate, read-out: Cmax, Median): 24.8 ng/mL
- half-life (Normal hepatic function, single oral dose 20 mg E4 monohydrate, read-out: T1/2, GM (converted)): 21.7 h
- half-life (Normal hepatic function, single oral dose 20 mg E4 monohydrate, read-out: T1/2, Mean (converted)): 22.3 h
- half-life (Normal hepatic function, single oral dose 20 mg E4 monohydrate, read-out: T1/2, Median (converted)): 22.7 h
- Tmax (Normal hepatic function, single oral dose 20 mg E4 monohydrate): 0.475 h
- Vd/F (Normal hepatic function, single oral dose 20 mg E4 monohydrate, read-out: Vz/F, GM): 6000 L
- Vd/F (Normal hepatic function, single oral dose 20 mg E4 monohydrate, read-out: Vz/F, Mean): 6590 L
- Vd/F (Normal hepatic function, single oral dose 20 mg E4 monohydrate, read-out: Vz/F, Median): 6430 L
- AUC(0-inf) (Severe (Test), one-way ANOVA, single oral dose 20 mg, read-out: AUCinf, Geometric LS Mean): 198 ng·h/mL
- Cmax (Severe (Test), one-way ANOVA, single oral dose 20 mg, read-out: Cmax, Geometric LS Mean): 111 ng/mL
- AUC(0-t) (Severe hepatic impairment, single oral dose 20 mg E4 monohydrate, read-out: AUC0-24 h, GM): 179 ng·h/mL
- AUC(0-t) (Severe hepatic impairment, single oral dose 20 mg E4 monohydrate, read-out: AUC0-24 h, Mean): 184 ng·h/mL
- AUC(0-t) (Severe hepatic impairment, single oral dose 20 mg E4 monohydrate, read-out: AUC0-24 h, Median): 172 ng·h/mL
- AUC(0-inf) (Severe hepatic impairment, single oral dose 20 mg E4 monohydrate, read-out: AUCinf, GM): 198 ng·h/mL
- AUC(0-inf) (Severe hepatic impairment, single oral dose 20 mg E4 monohydrate, read-out: AUCinf, Mean): 205 ng·h/mL
- AUC(0-inf) (Severe hepatic impairment, single oral dose 20 mg E4 monohydrate, read-out: AUCinf, Median): 180 ng·h/mL
- AUC(0-t) (Severe hepatic impairment, single oral dose 20 mg E4 monohydrate, read-out: AUClast, GM): 196 ng·h/mL
- AUC(0-t) (Severe hepatic impairment, single oral dose 20 mg E4 monohydrate, read-out: AUClast, Mean): 204 ng·h/mL
- AUC(0-t) (Severe hepatic impairment, single oral dose 20 mg E4 monohydrate, read-out: AUClast, Median): 178 ng·h/mL
- Cmax (Severe hepatic impairment, single oral dose 20 mg E4 monohydrate, read-out: Cmax, GM): 111 ng/mL
- Cmax (Severe hepatic impairment, single oral dose 20 mg E4 monohydrate, read-out: Cmax, Mean): ~117 ng/mL
- Cmax (Severe hepatic impairment, single oral dose 20 mg E4 monohydrate, read-out: Cmax, Median): 109 ng/mL
- half-life (Severe hepatic impairment, single oral dose 20 mg E4 monohydrate, read-out: T1/2, GM (converted)): 8.22 h
- half-life (Severe hepatic impairment, single oral dose 20 mg E4 monohydrate, read-out: T1/2, Mean (converted)): 8.97 h
- half-life (Severe hepatic impairment, single oral dose 20 mg E4 monohydrate, read-out: T1/2, Median (converted)): 6.26 h
- Tmax (Severe hepatic impairment, single oral dose 20 mg E4 monohydrate): 0.25 h
- Vd/F (Severe hepatic impairment, single oral dose 20 mg E4 monohydrate, read-out: Vz/F, GM): 1200 L
- Vd/F (Severe hepatic impairment, single oral dose 20 mg E4 monohydrate, read-out: Vz/F, Mean): 1260 L
- Vd/F (Severe hepatic impairment, single oral dose 20 mg E4 monohydrate, read-out: Vz/F, Median): 1220 L
- time to primary peak plasma concentration after administration (group of severe hepatic impairment): ≤ 15 min
- time post dose until which concentrations remained above LLOQ in at least half of the subjects (mild hepatic impairment): 144 h
- time post-dose of last measurable concentration (Clast) (mild hepatic impairment, 192 h = last measured timepoint): 192 h
- GM AUCinf compared to the control group (normal hepatic function) [1]: ~ 1.1 fold and 1.120 fold
- GM Cmax compared to the control group (normal hepatic function) [1]: ~ 1.7 fold and 1.661 fold
- time post dose until which concentrations remained above LLOQ in at least half of the subjects (moderate hepatic impairment): 96 h
- time post-dose of last measurable concentration (Clast) (moderate hepatic impairment): 144 h
- GM AUCinf compared to the control group (normal hepatic function) [2]: ~ 1.0 fold and 1.032 fold
- GM Cmax compared to the control group (normal hepatic function) [2]: ~ 1.9 fold and 1.896 fold
- time post dose until which concentrations remained above LLOQ in at least half of the subjects (normal hepatic function): 144 h
- time post-dose of last measurable concentration (Clast) (normal hepatic function, 192 h = last measured timepoint): 192 h
- time to primary peak plasma concentration after administration (on average, single oral dose 20 mg): ≤ 30 min
- time post dose until which concentrations remained above LLOQ in at least half of the subjects (severe hepatic impairment): 48 h
- time post-dose of last measurable concentration (Clast) (severe hepatic impairment): 168 h
- GM AUCinf compared to the control group (normal hepatic function) [3]: ~ 1.9 fold and 1.894 fold
- GM Cmax compared to the control group (normal hepatic function) [3]: ~ 5.4 fold and 5.359 fold
- time after which log-linear terminal elimination phase is entered (single oral dose 20 mg): ~ 12 h
